Assay results: patent US9557319B2, “Cell-based arrays, methods of making, and methods of using” (University of Florida Research Foundation, Inc., priority 2010, dated 2017)
Where two headings read alike, the source gives them in different places. Marks after values point to notes of the source that are not given here.

What was measured:
Format in all cases: cell-based, human
HCT116 cells [1] = test: Apoptosis of HCT116 cells incubated with soluble drugs in 96-well plates; conditions: soluble drug, 24 h
Procedure: FIGS. 12A-12D are a series of graphs illustrating apoptosis and proliferation dose-response curves from HCT116 cells incubated with soluble drugs. FIG. 12A illustrates the percent of apoptotic HCT116 cells incubated 24 h with soluble nutlin-3a. […] Significant differences were determined by ANOVA, {F(5,282)=19.694, p<0.05}, followed by Tukey's post-hoc analysis. FIG. 12C illustrates the percent of non-proliferating HCT116 cells incubated 24 h with soluble nutlin-3a. Significant differences were determined by ANOVA, {F(4,226)=12.643, p<0.05}, followed by Tukey's post-hoc analysis. […] Significant differences were determined by ANOVA, {F(5,252)=102.485, p<0.05}, followed by Tukey's post-hoc analysis. (*: p<0.05 compared to all other conditions, #:p<0.05 from all conditions marked *).
Results were corroborated using soluble drugs in 96-well plates (FIGS. 12A-D).

CA2 CCSCs = test: CA2 patient-derived CCSC proliferation on drug-eluting microarray; conditions: for proliferation with increasing drug exposure: CA2 cells, single drug; for drug sensitivity (1/D50) / Emax: non-proliferation
Procedure: (§1) ALDH^high spheres were generated from tumor cells obtained from patients with colon cancer. Isolated cells were cultured in serum-free media as previously described^14 (reference 14 is hereby incorporated by reference herein with respect to methods for culturing cells in serum-free media). Using these cultures, adherent cell growth was established with 0.1% gelatin (Millipore) coatings on tissue culture plates (TPP, Switzerland) and the cells were serially propagated. For CA1 and CA2 cells, 25,000 cells were tested per array. Cells were seeded in PBS with 0.1% gelatin and treated identically to the microarrays with HCT116.
(§2) Camptothecin-loaded microarrays were stained with Annexin V (BD Pharminigen), fixed in 4% paraformaldehyde, and placed in PBS with Hoechst dye 34580 (Invitrogen, USA) for 30 min. Azide-loaded microarrays were fixed with 4% paraformaldehyde and incubated with PBS containing Hoechst 34580 dye. Finally, nutlin-3a-loaded microarrays were fixed with 4% paraformaldehyde, stained with BrdU (BD Bioscience, San Jose, Calif.), and incubated in PBS containing Hoechst 34580 dye. All arrays were mounted with Fluoro-Gel (Electron Microscope Sciences, Hatfield, Pa.) and imaged using an Axiovert 200M microscope (Carl Zeiss, Oberkochen, Germany). Analysis was performed with Axiovision (Carl Zeiss, Oberkochen, Germany) by quantifying, in each drug-eluting island, the area of fluorescence and reported as relative fluorescence intensity (RFI).
(§3) Proliferation values were normalized to control (0 μM drug). Values for concentration-response curves were transformed to non-proliferation by subtracting the normalized value from 100%. Curve fitting analysis was performed to obtain Emax and D50 values using the equation E=E0+(Emax×D)/(D+D50) where E is the effect (either non-proliferation or apoptosis), E0 is the initial value, Emax is the maximum effect, D is the dose, and D50 is the dose at which a 50% maximum effect (Emax) is observed^34. Drug sensitivity values were obtained by taking the inverse of the D50 and multiplying by 100. Those values marked with “#” indicate that the r^2 value of the curve-fit was below 0.65. N/A values are present where negative parameters were obtained.

HCT116 cells [2] = test: HCT116 apoptosis (annexin V) on drug-eluting cellular microarray; conditions: for drug sensitivity (1/D50) / Emax: apoptosis; for Emax: Homo sapiens, HCT-116, Camptothecin dose response
Description: Glass coverslips were cleaned in an oxygen plasma etcher (Terra Universal, Fullerton, Calif.). Arrays of isolated spots of (3-Aminopropyl) trimethoxysilane (NH2-terminated silane) (Sigma-Aldrich, St. Louis, Mo.) were robotically printed on clean coverslips using a Calligrapher Miniarrayer printer (Bio-Rad, Hercules, Calif.) with 1500 μm center to center distances and a pin diameter of 400 μm. The silane printed coverslips were then coated with 175 Å of titanium (Ti; 99.995% pure) and 225 Å of gold (Au; 99.999% pure) (Williams Advanced Materials, Buffalo, N.Y.). Following coating, gold-coated arrays were sonicated to remove gold from the amine spots, exposing NH2-terminated silane islands. The coverslips were incubated with 0.1 M, methyl-terminated alkanethiol (CH3(CH2)11SH) (Sigma) for 30 min. Substrates were incubated in 10% Pluronic® F-127 (BASF Corporation, USA) for 3 h and 1% heat-denatured BSA for 30 min to create a non-fouling surface around the adhesive amine islands. Three layers of the drug-loaded ethylene vinyl acetate (EVA) polymers were printed over the amine islands and placed in a desiccator between each successive layer. Poly-d-lysine (0.1%) was over-spotted onto the EVA films to promote cell attachment. […] Schematic diagrams of the arrays are illustrated in FIGS. 6A and 6B.
HCT116 (p53+/+, ATCC, Manassas, Va.) human colon cancer cells were maintained in McCoy's 5a Medium supplemented with 10% fetal bovine serum (Thermo Scientific, Waltham, Mass.), 1% penicillin G and 1% streptomycin (Thermo Scientific). The cells were cultured at 37° C. in a humidified incubator containing 5% CO2. Following microarray fabrication, 100,000 HCT116 cells were seeded over each array in 3 ml serum-free media and allowed to incubate on a rocking plate at room temperature until cell attachment to the EVA islands occurred, with minimal attachment to background, typically 10-15 min. Microarrays were gently washed in PBS, placed in a 35 mm petri dish with complete media, and placed in an incubator for 24-72 h.
as §2, §3
Hyperbolic curve fits were generated for the dose responses from a first drug in the presence of a fixed amount of a second drug for each combination (Tables 2 and 3, below). […]

CA1 CCSCs = test: CA1 patient-derived CCSC proliferation on drug-eluting microarray; conditions: for proliferation with increasing drug exposure: CA1 cells, single drug; for drug sensitivity (1/D50) / Emax: non-proliferation
Procedure: as §1, §2, §3

[3] = Nutlin dose response, 2nd drug CPT 0 μM, CA2
[4] = Nutlin dose response, 2nd drug CPT 1 μM, CA2
[5] = Nutlin dose response, 2nd drug CPT 10 μM, CA2
[6] = Nutlin dose response, 2nd drug CPT 50 μM, CA2
[7] = Nutlin dose response, 2nd drug CPT 50 μM, CA1

Q: Which results are given for `CC[C@@]1(O)C(=O)OCc2c1cc1n(c2=O)Cc2cc3ccccc3nc2-1` [Camptothecin]?
A: effect on inducing apoptosis of HCT116 cells (HCT116 cells [1]): dose-dependent effect; proliferation with increasing drug exposure (CA2 CCSCs): decreasing proliferation; drug sensitivity (1/D50) (CA2 CCSCs; Camptothecin dose response, 2nd drug NUT 0 μM, CA2): 133 +/− 5.3* ^; drug sensitivity (1/D50) (CA2 CCSCs; Camptothecin dose response, 2nd drug NUT 1 μM, CA2): 1.60 +/− 7.9* ^; drug sensitivity (1/D50) (CA2 CCSCs; Camptothecin dose response, 2nd drug NUT 125 μM, CA2): 0.00 +/− 1.01^#; Emax (CA2 CCSCs; Homo sapiens, Camptothecin dose response, 2nd drug NUT 0 μM, CA2, read-out: Emax): 46.6%; Emax (CA2 CCSCs; Homo sapiens, Camptothecin dose response, 2nd drug NUT 1 μM, CA2, read-out: Emax): 52.3%; Emax (CA2 CCSCs; Homo sapiens, Camptothecin dose response, 2nd drug NUT 25 μM, CA2, read-out: Emax): 43.9%; decrease in the Emax of the camptothecin concentration response curve (HCT116 cells [2]; 125 μM nutlin-3a compared to 0 μM nutlin-3a, HCT116 apoptosis): 65%; proportion of HCT116 cells undergoing apoptosis on single-drug microarray (HCT116 cells [2]; 72 h incubation): greater with increasing concentrations; drug sensitivity (1/D50) (HCT116 cells [2]; Camptothecin dose response, 2nd drug NUT 0 μM): 2.53 +/− 1.1; drug sensitivity (1/D50) (HCT116 cells [2]; Camptothecin dose response, 2nd drug NUT 1 μM): 83.3 +/− 76; drug sensitivity (1/D50) (HCT116 cells [2]; Camptothecin dose response, 2nd drug NUT 25 μM): 15.9 +/− 2.8; Emax (HCT116 cells [2]; 2nd drug NUT 0 μM): 21.6%; Emax (HCT116 cells [2]; 2nd drug NUT 1 μM): 12.8%; Emax (HCT116 cells [2]; 2nd drug NUT 25 μM): 9.31%; Emax (HCT116 cells [2]; 2nd drug NUT 125 μM): 7.46%; proliferation with increasing drug exposure (CA1 CCSCs): decreasing proliferation; drug sensitivity (1/D50) (CA1 CCSCs; Camptothecin dose response, 2nd drug NUT 0 μM, CA1): 10.8 +/− 16; drug sensitivity (1/D50) (CA1 CCSCs; Camptothecin dose response, 2nd drug NUT 1 μM, CA1): 1.97 +/− 7.7; drug sensitivity (1/D50) (CA1 CCSCs; Camptothecin dose response, 2nd drug NUT 25 μM, CA1): 3.18 +/− 0.40; drug sensitivity (1/D50) (CA1 CCSCs; Camptothecin dose response, 2nd drug NUT 125 μM, CA1): 0.62 +/− 1.8; Emax (CA1 CCSCs; Homo sapiens, Camptothecin dose response, 2nd drug NUT 0 μM, CA1, read-out: Emax): 61.9%; Emax (CA1 CCSCs; Homo sapiens, Camptothecin dose response, 2nd drug NUT 1 μM, CA1, read-out: Emax): 105%; Emax (CA1 CCSCs; Homo sapiens, Camptothecin dose response, 2nd drug NUT 25 μM, CA1, read-out: Emax): 109%; Emax (CA1 CCSCs; Homo sapiens, Camptothecin dose response, 2nd drug NUT 125 μM, CA1, read-out: Emax): 221%

Q: What does the source list for `COc1ccc(C2=N[C@@H](c3ccc(Cl)cc3)[C@@H](c3ccc(Cl)cc3)N2C(=O)N2CCNC(=O)C2)c(OC(C)C)c1` [Nutlin-3a]?
A: effect on inducing apoptosis of HCT116 cells (HCT116 cells [1]): no effect; decrease in Emax of the concentration response curve to nutlin-3a (CA2 CCSCs; 50 μM camptothecin present vs nutlin-3a alone, CA2, not significant (p=0.097)): 53%; proliferation with increasing drug exposure (CA2 CCSCs): decreasing proliferation; Emax (CA2 CCSCs; [3]): 73.3 +/− 9.3*; drug sensitivity (1/D50) (CA2 CCSCs; [3]): 171 +/− 49 ^; Emax (CA2 CCSCs; [4]): 43.8 +/− 11; drug sensitivity (1/D50) (CA2 CCSCs; [4]): 189 +/− 328 ^; Emax (CA2 CCSCs; [5]): 57.0 +/− 39; drug sensitivity (1/D50) (CA2 CCSCs; [5]): 0.95 +/− 4.6^#; Emax (CA2 CCSCs; [6]): 34.1 +/− 9.3*; drug sensitivity (1/D50) (CA2 CCSCs; [6]): 303 +/− 260 ^; drug sensitivity (1/D50) (HCT116 cells [2]; Nutlin dose response, 2nd drug CPT 10 μM): 2.48 +/− 0.83; drug sensitivity (1/D50) (HCT116 cells [2]; Nutlin dose response, 2nd drug CPT 50 μM): 143 +/− 98; effect on proportion of HCT116 cells that underwent apoptosis (HCT116 cells [2]; administered alone, microarray): no effect; proportion of HCT116 cells that underwent apoptosis (HCT116 cells [2]; nutlin-3a alone, 125 μM loading): 5.6%; increase in sensitivity to nutlin-3a (CA1 CCSCs; 10 μM camptothecin present vs nutlin-3a alone, CA1): 75%; increase in Emax of the nutlin-3a concentration response curve (CA1 CCSCs; 50 μM camptothecin present vs nutlin-3a alone, CA1): 115%; proliferation with increasing drug exposure (CA1 CCSCs): decreasing proliferation; Emax (CA1 CCSCs; Nutlin dose response, 2nd drug CPT 0 μM, CA1): 38.0; drug sensitivity (1/D50) (CA1 CCSCs; Nutlin dose response, 2nd drug CPT 0 μM, CA1, listed as Nutlin): 28.6 +/− 4.7*; drug sensitivity (1/D50) (CA1 CCSCs; Nutlin dose response, 2nd drug CPT 0 μM, CA1, listed as nutlin-3a): 28.6; Emax (CA1 CCSCs; Nutlin dose response, 2nd drug CPT 1 μM, CA1): 34.7 +/− 5.9; Emax (CA1 CCSCs; Nutlin dose response, 2nd drug CPT 10 μM, CA1): 50.9 +/− 0.15; drug sensitivity (1/D50) (CA1 CCSCs; Nutlin dose response, 2nd drug CPT 10 μM, CA1, listed as Nutlin): 50.0 +/− 1.3*; drug sensitivity (1/D50) (CA1 CCSCs; Nutlin dose response, 2nd drug CPT 10 μM, CA1, listed as nutlin-3a): 50.0; Emax (CA1 CCSCs; [7]): 81.7; drug sensitivity (1/D50) (CA1 CCSCs; [7]): 55.6 +/− 180
